From US7868188B2, “5-heteroaryl thiazoles and their use as PI3K inhibitors” (AstraZeneca AB, priority 2004, dated 2011)

Columns and labels:
Experiment in all cases: PI 3-Kinase Assay (Additional Pharmacological Analysis, AlphaScreen)
Assay type in all cases: biochemical
Conditions in all cases: 40 μM ATP
p110α Type Ia human PI3K = target: T1, p110α Type Ia human PI3K (Homo sapiens, UniProt P42336)
T1 construct: full length DNA of each of the p110α, p110β and p110δ Type Ia human PI3K p110 isoforms; 6-His; made in house; host or cells: baculovirus expression system (Sf9 is named only for PI3Kγ)
T1 sequence (P42336 whole entry, canonical isoform): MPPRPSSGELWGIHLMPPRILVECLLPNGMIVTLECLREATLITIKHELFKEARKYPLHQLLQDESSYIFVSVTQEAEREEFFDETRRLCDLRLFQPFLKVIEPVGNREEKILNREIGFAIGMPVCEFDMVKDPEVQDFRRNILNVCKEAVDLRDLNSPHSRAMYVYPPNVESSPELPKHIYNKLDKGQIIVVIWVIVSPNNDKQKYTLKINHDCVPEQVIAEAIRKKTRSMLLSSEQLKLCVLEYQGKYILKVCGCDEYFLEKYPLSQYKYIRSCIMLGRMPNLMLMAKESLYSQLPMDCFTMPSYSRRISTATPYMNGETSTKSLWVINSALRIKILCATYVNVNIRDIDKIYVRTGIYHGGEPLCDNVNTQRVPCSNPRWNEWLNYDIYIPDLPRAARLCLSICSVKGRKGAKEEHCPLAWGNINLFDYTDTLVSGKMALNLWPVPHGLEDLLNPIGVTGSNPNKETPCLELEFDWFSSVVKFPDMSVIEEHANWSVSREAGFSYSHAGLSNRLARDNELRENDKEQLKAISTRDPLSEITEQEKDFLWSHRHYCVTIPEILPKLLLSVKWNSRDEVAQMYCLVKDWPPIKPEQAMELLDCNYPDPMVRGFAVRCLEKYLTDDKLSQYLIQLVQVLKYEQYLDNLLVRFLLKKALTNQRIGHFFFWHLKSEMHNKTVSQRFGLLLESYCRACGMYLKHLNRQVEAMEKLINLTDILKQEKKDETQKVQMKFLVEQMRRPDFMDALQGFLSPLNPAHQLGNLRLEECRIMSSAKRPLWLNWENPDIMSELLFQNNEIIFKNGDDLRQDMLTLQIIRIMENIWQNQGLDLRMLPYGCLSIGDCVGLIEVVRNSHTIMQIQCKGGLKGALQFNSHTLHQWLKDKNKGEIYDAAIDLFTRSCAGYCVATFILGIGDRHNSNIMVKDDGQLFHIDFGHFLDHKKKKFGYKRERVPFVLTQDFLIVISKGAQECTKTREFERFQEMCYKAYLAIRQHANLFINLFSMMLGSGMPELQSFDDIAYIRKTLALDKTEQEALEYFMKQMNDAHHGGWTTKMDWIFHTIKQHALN
T1 sequence (P27986 whole entry partner, canonical isoform): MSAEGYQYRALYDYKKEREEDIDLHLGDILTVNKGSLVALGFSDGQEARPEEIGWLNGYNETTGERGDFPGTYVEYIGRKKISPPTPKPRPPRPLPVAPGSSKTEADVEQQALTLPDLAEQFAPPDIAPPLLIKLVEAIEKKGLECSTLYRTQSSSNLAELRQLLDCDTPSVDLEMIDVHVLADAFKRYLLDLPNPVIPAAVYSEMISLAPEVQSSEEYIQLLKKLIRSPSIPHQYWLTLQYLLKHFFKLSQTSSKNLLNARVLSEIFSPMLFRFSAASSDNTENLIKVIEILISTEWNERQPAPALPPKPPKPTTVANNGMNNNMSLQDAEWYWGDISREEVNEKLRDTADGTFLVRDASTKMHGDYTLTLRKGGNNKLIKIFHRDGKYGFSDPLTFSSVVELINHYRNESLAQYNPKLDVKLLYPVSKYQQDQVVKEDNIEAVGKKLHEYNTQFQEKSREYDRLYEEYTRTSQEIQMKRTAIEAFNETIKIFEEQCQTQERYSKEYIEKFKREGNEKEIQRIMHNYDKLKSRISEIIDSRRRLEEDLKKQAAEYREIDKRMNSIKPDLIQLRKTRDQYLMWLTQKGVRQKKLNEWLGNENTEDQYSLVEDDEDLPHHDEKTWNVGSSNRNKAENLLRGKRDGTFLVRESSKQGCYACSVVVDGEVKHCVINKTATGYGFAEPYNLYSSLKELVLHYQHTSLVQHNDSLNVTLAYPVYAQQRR
Source text: (§1) In order to assess the ability of compounds to inhibit PI3K enzymes, especially PI3Kγ, a novel PI3K assay technology was established. The PI3K enzyme reaction product phosphatidylinositol 3,4,5-trisphosphate (PtdIns(3,4,5)P3) is detected using the pleckstrin homology (PH) domain from general receptor for phosphoinositides (GRP1) as probe. Thus, complexes form between GRP1 PH and PtdIns(3,4,5)P3, and if the lipid is biotinylated and the PH domain tagged with glutathion transferase (GST), the complexes can be detected using AlphaScreen® (PerkinElmer) technology. The signal generated by the complex between GRP1 PH-GST and PtdIns(3,4,5)P3-biotin can be quenched by introduction of non-biotinylated PtdIns(3,4,5)P3, forming the basis for an assay measuring the production of PtdIns(3,4,5)P3 by PI3K enzyme activity.
(§2) Biotinylated PtdIns(3,4,5)P3 was detected using AlphaScreen® technology. Detection was in 384-well microplates in 50 mM Hepes, pH7.4, 50 mM NaCl and 0.1% BSA. The biotinylated, short chain (diC8) phosphoinositide and GRP1 PH-GST were added at 15 nM and 3.75 nM, respectively. Donor and acceptor AlphaScreen® beads (Perkin Elmer) were added at 5 μg/ml to a final volume of 50 μl. Plates were incubated in the dark for 5 hours to ensure binding was complete and then read in an AlphaQuest AD instrument (Perkin Elmer) using standard settings.
(§3) The GRP1 PH domain (amino acids 263 to 380) was PCR cloned from a mouse brain cDNA library (Stratagene), expressed in E. coli and purified using standard protocols. Lipids were from Echelon Research Laboratories, Salt Lake City, Utah, or Cell Signals Inc., Lexington, Ky., USA.
(§4) The assay used AlphaScreen® based detection of PI(3,4,5)P3 (Gray et al., Anal. Biochem., 2003, 313, 234-245) to determine the ability of test compounds to inhibit phosphorylation of recombinant PI3Ks of PI(4,5)P2.
(§5) DNA fragments encoding human PI3K catalytic and regulatory subunits were isolated from cDNA libraries using standard molecular biology and PCR cloning techniques. The selected DNA fragments were used to generate baculovirus expression vectors. In particular, full length DNA of each of the p110α, p110β and p110δ Type Ia human PI3K p110 isoforms (EMBL Accession Nos. HSU79143, S67334, Y10055 for p110α, p110β and p110δ, respectively) were sub-cloned into a pDEST10 vector (Invitrogen Limited, Fountain Drive, Paisley, UK). The vector is a Gateway-adapted version of Fastbac1 containing a 6-His epitope tag. The full length human p85 (regulatory subunit (EMBL Accession No. HSP13KIN) was also sub-cloned into pFastBac1 vector containing a 6-His epitope tag. The Type Ia p110 constructs were co-expressed with the p85α regulatory subunit. Residues 2-1102 of human PI3Kγ were inserted between the BamHI and Not1 cloning sites of the […] HTb vector for expression of His(6)-tagged (N-terminal), full length PI3Kγ in baculo virus infected Sf9 insect cells. Following expression in the baculovirus system using standard baculovirus expression techniques, expressed proteins were purified using standard His epitope tag purification techniques.
(§6) Standard enzyme reactions were performed in 50 mM Hepes, pH7.4, 50 mM NaCl, […], 5 mM DTT and 0.05% CHAPS containing 40 μM ATP, 40 μM diC8 PtdIns(4,5)P2 and 2-20 ng of Type 1 PI3K in a total volume of 20 μl. The reaction was stopped by the addition of 10 μl of EDTA/diC6 PtdIns(3,4,5)P3-biotin followed by 20 μl of GRP1 PH-GST/AlphaScreen beads both in 50 mM Hepes, pH7.4, 50 mM NaCl and 0.1% BSA. Final concentrations were 50 mM EDTA, 15 nM biotinylated diC6PtdIns(3,4,5)P3, 3.75 nM GRP1 PH-GST and 5 μg/ml of AlphaScreen beads. Inhibitors were added to dry wells in […] of 100% DMSO giving a final DMSO concentration of 2.5% in the assay. Control wells contained 2.5% DMSO in the absence of test compound. Inhibition of PI3K by test compounds was expressed as an IC50 value.

p110β Type Ia human PI3K = target: T2, p110β Type Ia human PI3K (Homo sapiens, UniProt P42338)
T2 construct: full length DNA of each of the p110α, p110β and p110δ Type Ia human PI3K p110 isoforms; 6-His; made in house; host or cells: baculovirus expression system (Sf9 is named only for PI3Kγ)
T2 sequence (P42338 whole entry, canonical isoform): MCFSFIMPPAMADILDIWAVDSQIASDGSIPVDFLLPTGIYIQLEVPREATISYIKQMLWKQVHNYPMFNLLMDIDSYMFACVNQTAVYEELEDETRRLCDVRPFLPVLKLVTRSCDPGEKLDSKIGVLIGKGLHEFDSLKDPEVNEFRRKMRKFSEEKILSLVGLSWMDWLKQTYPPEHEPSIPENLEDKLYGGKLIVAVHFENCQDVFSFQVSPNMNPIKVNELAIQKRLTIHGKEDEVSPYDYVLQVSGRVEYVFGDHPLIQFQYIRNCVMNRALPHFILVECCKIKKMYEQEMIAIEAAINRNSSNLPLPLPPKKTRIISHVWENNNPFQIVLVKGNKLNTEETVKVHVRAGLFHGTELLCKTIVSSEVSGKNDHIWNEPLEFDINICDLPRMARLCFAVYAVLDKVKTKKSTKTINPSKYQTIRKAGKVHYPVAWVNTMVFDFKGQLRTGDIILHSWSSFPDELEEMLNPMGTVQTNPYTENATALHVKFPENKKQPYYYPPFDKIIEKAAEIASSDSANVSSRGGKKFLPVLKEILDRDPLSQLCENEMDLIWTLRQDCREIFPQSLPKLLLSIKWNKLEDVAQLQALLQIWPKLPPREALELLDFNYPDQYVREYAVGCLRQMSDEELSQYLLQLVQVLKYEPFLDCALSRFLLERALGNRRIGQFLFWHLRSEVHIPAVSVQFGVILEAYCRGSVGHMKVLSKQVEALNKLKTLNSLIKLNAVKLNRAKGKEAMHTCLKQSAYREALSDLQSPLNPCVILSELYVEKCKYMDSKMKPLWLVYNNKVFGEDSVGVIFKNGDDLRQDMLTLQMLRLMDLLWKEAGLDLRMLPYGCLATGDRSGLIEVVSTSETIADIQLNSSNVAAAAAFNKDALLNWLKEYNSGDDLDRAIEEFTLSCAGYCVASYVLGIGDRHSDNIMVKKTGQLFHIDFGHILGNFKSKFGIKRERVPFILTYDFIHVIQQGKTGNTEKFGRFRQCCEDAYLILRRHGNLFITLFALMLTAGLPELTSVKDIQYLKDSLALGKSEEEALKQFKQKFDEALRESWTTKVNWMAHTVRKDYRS
T2 sequence (P27986 whole entry partner, canonical isoform): as the sequence (P27986 whole entry partner, canonical isoform) above
Source text: as §1, §2, §3, §4, §5, §6

p110γ Type Ib human PI3K = target: T3, p110γ Type Ib human PI3K (Homo sapiens, UniProt P48736)
T3 construct: Residues 2-1102 of human PI3Kγ were inserted between the BamHI and Not1 cloning sites; His(6) (N); made in house; host or cells: baculovirus-infected Sf9 insect cells
T3 sequence (P48736 2-1102): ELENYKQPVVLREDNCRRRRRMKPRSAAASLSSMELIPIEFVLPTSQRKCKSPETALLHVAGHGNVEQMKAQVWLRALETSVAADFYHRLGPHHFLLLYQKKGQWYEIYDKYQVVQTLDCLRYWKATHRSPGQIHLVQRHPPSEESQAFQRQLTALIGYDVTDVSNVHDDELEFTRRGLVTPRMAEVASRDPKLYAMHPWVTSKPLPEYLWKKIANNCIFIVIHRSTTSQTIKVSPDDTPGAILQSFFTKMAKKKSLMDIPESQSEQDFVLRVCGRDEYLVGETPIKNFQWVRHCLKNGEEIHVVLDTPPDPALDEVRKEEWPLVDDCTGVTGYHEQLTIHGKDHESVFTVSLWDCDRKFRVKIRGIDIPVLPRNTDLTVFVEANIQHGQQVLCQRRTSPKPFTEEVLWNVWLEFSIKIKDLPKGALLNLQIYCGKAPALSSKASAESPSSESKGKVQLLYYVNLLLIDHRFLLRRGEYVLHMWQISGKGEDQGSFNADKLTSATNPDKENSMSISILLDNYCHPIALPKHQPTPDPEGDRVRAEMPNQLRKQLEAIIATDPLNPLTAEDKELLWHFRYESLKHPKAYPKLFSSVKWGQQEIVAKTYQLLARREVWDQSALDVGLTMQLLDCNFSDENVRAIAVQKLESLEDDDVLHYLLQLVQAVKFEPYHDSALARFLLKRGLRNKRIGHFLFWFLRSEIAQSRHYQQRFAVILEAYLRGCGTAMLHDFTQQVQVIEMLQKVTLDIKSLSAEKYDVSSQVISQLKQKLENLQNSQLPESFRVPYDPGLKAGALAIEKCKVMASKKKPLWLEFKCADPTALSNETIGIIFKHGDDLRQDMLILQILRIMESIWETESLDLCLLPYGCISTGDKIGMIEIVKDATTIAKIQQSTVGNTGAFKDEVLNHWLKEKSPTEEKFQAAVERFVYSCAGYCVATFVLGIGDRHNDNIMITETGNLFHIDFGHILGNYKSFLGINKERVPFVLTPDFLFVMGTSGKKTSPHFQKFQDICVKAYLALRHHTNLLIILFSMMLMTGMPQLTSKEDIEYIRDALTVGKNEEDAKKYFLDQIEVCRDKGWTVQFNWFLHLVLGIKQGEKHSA
Source text: as §1, §2, §3, §4, §5, §6

p110δ Type Ia human PI3K = target: T4, p110δ Type Ia human PI3K (Homo sapiens, UniProt O00329)
T4 construct: full length DNA of each of the p110α, p110β and p110δ Type Ia human PI3K p110 isoforms; 6-His; made in house; host or cells: baculovirus expression system (Sf9 is named only for PI3Kγ)
T4 sequence (O00329 whole entry, canonical isoform): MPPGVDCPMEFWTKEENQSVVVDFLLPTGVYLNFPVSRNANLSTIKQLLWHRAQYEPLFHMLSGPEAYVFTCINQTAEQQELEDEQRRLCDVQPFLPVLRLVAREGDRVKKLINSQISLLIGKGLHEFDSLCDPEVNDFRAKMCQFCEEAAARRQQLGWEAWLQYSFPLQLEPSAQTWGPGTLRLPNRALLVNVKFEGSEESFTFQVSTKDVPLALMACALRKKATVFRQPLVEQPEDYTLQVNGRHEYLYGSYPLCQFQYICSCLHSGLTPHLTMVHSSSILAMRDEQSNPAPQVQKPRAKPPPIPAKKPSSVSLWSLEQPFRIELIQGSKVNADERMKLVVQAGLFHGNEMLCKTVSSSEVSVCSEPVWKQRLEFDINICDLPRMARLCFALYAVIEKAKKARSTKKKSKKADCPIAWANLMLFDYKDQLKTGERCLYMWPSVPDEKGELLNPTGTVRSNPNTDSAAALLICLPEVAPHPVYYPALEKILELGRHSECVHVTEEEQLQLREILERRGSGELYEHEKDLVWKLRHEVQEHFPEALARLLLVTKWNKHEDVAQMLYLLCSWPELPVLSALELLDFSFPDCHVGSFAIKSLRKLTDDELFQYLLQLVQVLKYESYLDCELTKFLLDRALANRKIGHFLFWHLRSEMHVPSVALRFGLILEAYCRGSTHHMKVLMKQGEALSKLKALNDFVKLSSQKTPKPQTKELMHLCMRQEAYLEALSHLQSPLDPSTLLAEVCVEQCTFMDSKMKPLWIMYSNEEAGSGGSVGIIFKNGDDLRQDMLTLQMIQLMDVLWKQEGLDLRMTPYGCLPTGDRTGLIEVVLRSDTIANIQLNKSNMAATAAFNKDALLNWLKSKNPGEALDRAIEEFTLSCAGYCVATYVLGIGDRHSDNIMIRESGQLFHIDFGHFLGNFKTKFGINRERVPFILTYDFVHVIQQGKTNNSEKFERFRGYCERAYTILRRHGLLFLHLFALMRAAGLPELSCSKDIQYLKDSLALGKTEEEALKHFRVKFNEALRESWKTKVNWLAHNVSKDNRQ
T4 sequence (P27986 whole entry partner, canonical isoform): as the sequence (P27986 whole entry partner, canonical isoform) above
Source text: as §1, §2, §3, §4, §5, §6

| IC50 (p110α Type Ia human PI3K) [µM] | IC50 (p110β Type Ia human PI3K) [µM] | IC50 (p110γ Type Ib human PI3K) [µM] | IC50 (p110δ Type Ia human PI3K) [µM] | Structure (SMILES) |
| --- | --- | --- | --- | --- |
| 0.28 | 0.63 | 0.12 | 0.2 | CC(=O)Nc1nc(C)c(-c2cnc(Cl)c(NCc3ccccc3)c2)s1 [Example 46, N-{5-[5-(Benzylamino)-6-chloropyridin-3-yl]-4-methyl-1,3-thiazol-2-yl}acetamide] |
| 0.23 | 0.12 | 0.26 | < 0.1 | COCC(=O)Nc1nc(C)c(-c2cnc(Cl)c(NS(=O)(=O)c3ccccc3)c2)s1 [Example 56, N-[5-(5-Benzenesulfonylamino-6-chloropyridin-3-yl)-4-methyl-1,3-thiazol-2-yl]-2-methoxyacetamide] |
| 0.42 | 0.74 | 0.22 | 0.15 | CC(=O)Nc1nc(C)c(-c2cnc(Cl)c(S(C)(=O)=O)c2)s1 [Example 7, N-[5-(6-Chloro-5-methylsulfonyl-pyridin-3-yl)-4-methyl-1,3-thiazol-2-yl]acetamide] |
| 0.05 | 0.25 | 0.16 | 0.01 | CC(=O)Nc1nc(C)c(-c2cnc(Cl)c(NS(=O)(=O)CCCN3CCN(C)CC3)c2)s1 [Example 31, N-(5-{6-Chloro-5-[3-(4-methylpiperazin-1-yl)propylsulfonylamino]pyridin-3-yl}-4-methyl-1,3-thiazol-2-yl)acetamide bis(trifluoroacetate)] |
| 0.57 | 1.89 | 0.4 | 0.2 | CC(=O)Nc1nc(C)c(-c2cncc(S(=O)(=O)NCCO)c2)s1 [Example 8, N-{5-[5-(2-Hydroxyethylaminosulfonyl)pyridin-3-yl]-4-methyl-1,3-thiazol-2-yl}acetamide] |
